{
  "source": "PubChem BioAssay (NCI)",
  "assay_in_all_cases": "NCI-60 cell line screen, 48 h",
  "key": {"786-0 renal": {"system": "786-0 renal"}, "A498 renal": {"system": "A498 renal"}, "A549 NSCLC": {"system": "A549 NSCLC"}, "ACHN renal": {"system": "ACHN renal"}, "BT-549 breast": {"system": "BT-549 breast"}, "CAKI-1 renal": {"system": "CAKI-1 renal"}, "CCRF-CEM leukemia": {"system": "CCRF-CEM leukemia"}, "COLO 205 colon": {"system": "COLO 205 colon"}, "DU-145 prostate": {"system": "DU-145 prostate"}, "EKVX NSCLC": {"system": "EKVX NSCLC"}, "HCC-2998 colon": {"system": "HCC-2998 colon"}, "HCT-116 colon": {"system": "HCT-116 colon"}, "HCT-15 colon": {"system": "HCT-15 colon"}, "HOP-62 NSCLC": {"system": "HOP-62 NSCLC"}, "HOP-92 NSCLC": {"system": "HOP-92 NSCLC"}, "HS 578T breast": {"system": "HS 578T breast"}, "IGROV1 ovarian": {"system": "IGROV1 ovarian"}, "KM12 colon": {"system": "KM12 colon"}, "LOX IMVI melanoma": {"system": "LOX IMVI melanoma"}, "M14 melanoma": {"system": "M14 melanoma"}, "MALME-3M melanoma": {"system": "MALME-3M melanoma"}, "MCF7 breast": {"system": "MCF7 breast"}, "MDA-MB-231 breast": {"system": "MDA-MB-231 breast"}, "MDA-MB-435": {"system": "MDA-MB-435"}, "MDA-N": {"system": "MDA-N"}, "MOLT-4 leukemia": {"system": "MOLT-4 leukemia"}, "NCI-H226 lung": {"system": "NCI-H226 lung"}, "NCI-H23 lung": {"system": "NCI-H23 lung"}, "NCI/ADR-RES ovarian": {"system": "NCI/ADR-RES ovarian"}, "OVCAR-3 ovarian": {"system": "OVCAR-3 ovarian"}, "OVCAR-4 ovarian": {"system": "OVCAR-4 ovarian"}, "OVCAR-5 ovarian": {"system": "OVCAR-5 ovarian"}, "OVCAR-8 ovarian": {"system": "OVCAR-8 ovarian"}, "PC-3 prostate": {"system": "PC-3 prostate"}, "RPMI-8226 leukemia": {"system": "RPMI-8226 leukemia"}, "RXF 393 renal": {"system": "RXF 393 renal"}, "SF-268 CNS": {"system": "SF-268 CNS"}, "SF-295 CNS": {"system": "SF-295 CNS"}, "SF-539 CNS": {"system": "SF-539 CNS"}, "SK-MEL-2 melanoma": {"system": "SK-MEL-2 melanoma"}, "SK-MEL-28 melanoma": {"system": "SK-MEL-28 melanoma"}, "SK-MEL-5 melanoma": {"system": "SK-MEL-5 melanoma"}, "SK-OV-3 ovarian": {"system": "SK-OV-3 ovarian"}, "SN12C renal": {"system": "SN12C renal"}, "SNB-19 CNS": {"system": "SNB-19 CNS"}, "SNB-75 CNS": {"system": "SNB-75 CNS"}, "T-47D breast": {"system": "T-47D breast"}, "TK-10 renal": {"system": "TK-10 renal"}, "UACC-257 melanoma": {"system": "UACC-257 melanoma"}, "UACC-62 melanoma": {"system": "UACC-62 melanoma"}, "UO-31 renal": {"system": "UO-31 renal"}},
  "note": "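Five compound concentrations were applied to cells in 96-well plates for 48 hours; endpoints were derived by simple linear interpolation of the resulting dose-response curve. The concentration for full growth arrest is given as TGI.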",
  "data": [
    {"smiles": "CCOC(=O)c1cc(NC(=O)N(CCC#N)CCN(C(=O)N[C@@H](Cc2ccccc2)C(=O)N[C@@H](CC(C)C)C(=O)NC)c2ccccc2)ccc1OC", "values": [
      {"measurement": "TGI", "setting": "786-0 renal", "value": "> 100", "unit": "µM"},
      {"measurement": "TGI", "setting": "A498 renal", "value": "> 100", "unit": "µM"},
      {"measurement": "TGI", "setting": "A549 NSCLC", "value": "> 100", "unit": "µM"},
      {"measurement": "TGI", "setting": "ACHN renal", "value": "> 100", "unit": "µM"},
      {"measurement": "TGI", "setting": "BT-549 breast", "value": 82.9, "unit": "µM"},
      {"measurement": "TGI", "setting": "CAKI-1 renal", "value": "> 100", "unit": "µM"},
      {"measurement": "TGI", "setting": "CCRF-CEM leukemia", "value": "> 100", "unit": "µM"},
      {"measurement": "TGI", "setting": "COLO 205 colon", "value": "> 100", "unit": "µM"},
      {"measurement": "TGI", "setting": "DU-145 prostate", "value": "> 100", "unit": "µM"},
      {"measurement": "TGI", "setting": "EKVX NSCLC", "value": "> 100", "unit": "µM"},
      {"measurement": "TGI", "setting": "HCC-2998 colon", "value": "> 100", "unit": "µM"},
      {"measurement": "TGI", "setting": "HCT-116 colon", "value": "> 100", "unit": "µM"},
      {"measurement": "TGI", "setting": "HCT-15 colon", "value": "> 100", "unit": "µM"},
      {"measurement": "TGI", "setting": "HOP-62 NSCLC", "value": "> 100", "unit": "µM"},
      {"measurement": "TGI", "setting": "HOP-92 NSCLC", "value": 71, "unit": "µM"},
      {"measurement": "TGI", "setting": "HS 578T breast", "value": "> 100", "unit": "µM"},
      {"measurement": "TGI", "setting": "IGROV1 ovarian", "value": "> 100", "unit": "µM"},
      {"measurement": "TGI", "setting": "KM12 colon", "value": "> 100", "unit": "µM"},
      {"measurement": "TGI", "setting": "LOX IMVI melanoma", "value": 41.5, "unit": "µM"},
      {"measurement": "TGI", "setting": "M14 melanoma", "value": "> 100", "unit": "µM"},
      {"measurement": "TGI", "setting": "MALME-3M melanoma", "value": 73.5, "unit": "µM"},
      {"measurement": "TGI", "setting": "MCF7 breast", "value": "> 100", "unit": "µM"},
      {"measurement": "TGI", "setting": "MDA-MB-231 breast", "value": "> 100", "unit": "µM"},
      {"measurement": "TGI", "setting": "MDA-MB-435", "value": "> 100", "unit": "µM"},
      {"measurement": "TGI", "setting": "MDA-N", "value": "> 100", "unit": "µM"},
      {"measurement": "TGI", "setting": "MOLT-4 leukemia", "value": 82.1, "unit": "µM"},
      {"measurement": "TGI", "setting": "NCI-H226 lung", "value": "> 100", "unit": "µM"},
      {"measurement": "TGI", "setting": "NCI-H23 lung", "value": "> 100", "unit": "µM"},
      {"measurement": "TGI", "setting": "NCI/ADR-RES ovarian", "value": "> 100", "unit": "µM"},
      {"measurement": "TGI", "setting": "OVCAR-3 ovarian", "value": "> 100", "unit": "µM"},
      {"measurement": "TGI", "setting": "OVCAR-4 ovarian", "value": "> 100", "unit": "µM"},
      {"measurement": "TGI", "setting": "OVCAR-5 ovarian", "value": "> 100", "unit": "µM"},
      {"measurement": "TGI", "setting": "OVCAR-8 ovarian", "value": "> 100", "unit": "µM"},
      {"measurement": "TGI", "setting": "PC-3 prostate", "value": "> 100", "unit": "µM"},
      {"measurement": "TGI", "setting": "RPMI-8226 leukemia", "value": 57.9, "unit": "µM"},
      {"measurement": "TGI", "setting": "RXF 393 renal", "value": 75.2, "unit": "µM"},
      {"measurement": "TGI", "setting": "SF-268 CNS", "value": "> 100", "unit": "µM"},
      {"measurement": "TGI", "setting": "SF-295 CNS", "value": "> 100", "unit": "µM"},
      {"measurement": "TGI", "setting": "SF-539 CNS", "value": 98.5, "unit": "µM"},
      {"measurement": "TGI", "setting": "SK-MEL-2 melanoma", "value": "> 100", "unit": "µM"},
      {"measurement": "TGI", "setting": "SK-MEL-28 melanoma", "value": "> 100", "unit": "µM"},
      {"measurement": "TGI", "setting": "SK-MEL-5 melanoma", "value": "> 100", "unit": "µM"},
      {"measurement": "TGI", "setting": "SK-OV-3 ovarian", "value": "> 100", "unit": "µM"},
      {"measurement": "TGI", "setting": "SN12C renal", "value": "> 100", "unit": "µM"},
      {"measurement": "TGI", "setting": "SNB-19 CNS", "value": "> 100", "unit": "µM"},
      {"measurement": "TGI", "setting": "SNB-75 CNS", "value": "> 100", "unit": "µM"},
      {"measurement": "TGI", "setting": "T-47D breast", "value": "> 100", "unit": "µM"},
      {"measurement": "TGI", "setting": "TK-10 renal", "value": "> 100", "unit": "µM"},
      {"measurement": "TGI", "setting": "UACC-257 melanoma", "value": 55, "unit": "µM"},
      {"measurement": "TGI", "setting": "UACC-62 melanoma", "value": 24.9, "unit": "µM"},
      {"measurement": "TGI", "setting": "UO-31 renal", "value": "> 100", "unit": "µM"}
    ]}
  ]
}
